Consider 4 compounds from patent US20210121527A1, “METHODS OF TREATING MINIMAL RESIDUAL CANCER” (ICAHN SCHOOL OF MEDICINE AT MOUNT SINAI, priority 2018, published 2021).

One assay addresses T1, GCN2 catalytic domain (Homo sapiens, UniProt Q9P2K8).
T1 construct: HIS-SUMO-GCN2 catalytic domain (amino acids 584-1019); HIS (N); SUMO (N); made in house; host or cells: E. coli
T1 sequence (Q9P2K8 584-1019): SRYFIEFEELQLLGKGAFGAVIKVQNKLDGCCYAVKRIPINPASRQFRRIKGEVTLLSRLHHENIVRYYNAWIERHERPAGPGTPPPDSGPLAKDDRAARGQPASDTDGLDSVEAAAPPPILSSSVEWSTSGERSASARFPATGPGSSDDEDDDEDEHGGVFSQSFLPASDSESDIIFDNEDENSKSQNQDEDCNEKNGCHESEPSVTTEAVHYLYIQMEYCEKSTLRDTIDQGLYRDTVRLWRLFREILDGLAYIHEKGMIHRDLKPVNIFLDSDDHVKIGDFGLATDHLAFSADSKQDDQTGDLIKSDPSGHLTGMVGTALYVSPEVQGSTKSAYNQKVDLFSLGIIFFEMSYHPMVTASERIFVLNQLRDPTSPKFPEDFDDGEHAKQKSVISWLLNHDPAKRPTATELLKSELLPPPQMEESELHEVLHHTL
Nature of the assay: GCN2 biochemical TR-FRET kinase assay using purified eIF2a as substrate. The following applies: read-out: GCN2 Enzyme IC50. Here is the method: (§1) TR-FRET kinase assays were performed in the absence or presence of inhibitors in a reaction buffer consisting of 50 mM HEPES, pH 7.5, 10 mMMgCl2, 1.0 mM EGTA, and 0.01% Brij-35, and 100-200 nM GFP-eIF2a substrate. […] Following the addition of test compound, the reaction was initiated by addition of enzyme and incubated at room temperature for 45 minutes. The reaction was stopped by addition of EDTA to a final concentration of 10 mM and Terbium-labelled phospho-eIF2α antibody was added at a final concentration of 2 nM and incubated for 90 minutes. The resulting fluorescence was monitored in an EnVison® Multilabel reader (PerkinElmer, Waltham, Mass.). TR-FRET ratios and the resulting IC50 values were determined from the fitted inhibition curves. Biochemical specificity profiling was performed at Cerep (Redmond, Wash.) and DiscoverX (San Diego, Calif.).

For assay [1], the target named is T2, Recombinant human EIF2AK3 (PERK) catalytic domain (Homo sapiens, UniProt Q9NZJ5).
T2 construct: catalytic domain (amino acids 536-1116; Cat # PV5107); purchased Invitrogen (Carlsbad, Calif.) PV5107
T2 sequence (Q9NZJ5 536-1116): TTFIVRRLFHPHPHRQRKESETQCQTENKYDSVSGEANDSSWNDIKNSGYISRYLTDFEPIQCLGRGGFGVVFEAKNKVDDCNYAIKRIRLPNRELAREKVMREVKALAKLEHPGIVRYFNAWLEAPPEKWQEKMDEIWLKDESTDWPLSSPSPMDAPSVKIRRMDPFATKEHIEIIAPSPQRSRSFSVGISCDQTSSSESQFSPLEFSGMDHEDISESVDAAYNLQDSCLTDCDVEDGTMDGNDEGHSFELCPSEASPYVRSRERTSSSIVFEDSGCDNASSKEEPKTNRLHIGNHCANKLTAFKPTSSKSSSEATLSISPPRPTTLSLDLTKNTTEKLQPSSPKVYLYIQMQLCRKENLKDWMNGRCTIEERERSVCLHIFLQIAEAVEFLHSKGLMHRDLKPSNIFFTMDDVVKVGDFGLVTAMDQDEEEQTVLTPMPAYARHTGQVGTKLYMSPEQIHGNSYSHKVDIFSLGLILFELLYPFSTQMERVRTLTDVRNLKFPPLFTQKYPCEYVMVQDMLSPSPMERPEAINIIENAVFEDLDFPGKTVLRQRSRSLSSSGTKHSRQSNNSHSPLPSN
Nature of the assay: PERK biochemical TR-FRET kinase assay using purified eIF2a as substrate. The following applies: read-out: PERK Enzyme IC50. Here is the method:
as §1
In general terms: Time-resolved FRET reads energy transfer from a long-lived donor to a nearby acceptor.

In the next assay the test system is ATF4-Luc activity. Nature of the assay: ATF4-luc assay, tunicamycin-induced, 293 cells. The following applies: Homo sapiens, HEK293; tunicamycin-induced ATF4-Luc activity in 293 cells; read-out: ATF4-luc Cell-based IC50. Here is the method: ATF4-luc assay: 293 cells were transduced with an ATF4-luc expressing lentivirus (SABiosciences, Frederick, Md.) and selected in growth medium containing 1 μg/ml puromycin. To determine the effect of compounds on ER stress-induced ATF4 activity, 293-ATF4-luc cells were seeded at 15,000 cells per well in poly-D-Lysine coated 96-well plates and allowed to attach overnight. The cells were then pre-treated with test compounds for 30 minutes. Tunicamycin (2 μM) was added to induce ER stress and the plates were incubated at 37° C. for 6 hours. The culture media was then aspirated and the cells were lysed in passive lysis buffer (Promega Cat # E194A) on a plate shaker for 5 minutes. Luciferase activity was monitored using Luciferase Assay Reagent (Promega Cat # E1501) in a Wallac 1420 Victor2™ Multilabel Counter (PerkinElmer, Waltham, Mass.) and IC50 values were determined from the resulting fitted inhibition curves using un-induced (100% inhibition) and induced (0% inhibition) wells as controls.

A further assay has as its system secondary kinase targets. Nature of the assay: Kinase selectivity by enzymatic biochemical assay (FIG. 2E). The note with it: enzymatic assays. Here is the method:
as §1, with “Biochemical assays: Recombinant human EIF2AK3 (PERK) catalytic domain (amino acids 536-1116; Cat # PV5107), GFP-eIF2a (Cat # PV4809) substrate, and Terbium-labelled phospho-eIF2a antibody (Cat # PR8956B) were purchased from Invitrogen (Carlsbad, Calif.). HIS-SUMO-GCN2 catalytic domain (amino acids 584-1019) was expressed and purified from E. coli. TR-FRET kinase” for “TR-FRET kinase”

Turning to `Cc1cccc(CC(=O)N2CCc3c2ccc(-c2cn(C)c4ncnc(N)c24)c3F)n1` [GSK2656157, reference compound], the results for the IC50 (on GCN2 catalytic domain; in assay [1]; in the assay with ATF4-Luc activity) were greater than 200000 nM, 8 nM and 21 nM, respectively. For the same compound, the secondary kinase targets entry in the assay with secondary kinase targets is given as “several secondary targets below 5 μM”.

With `CNC(=O)c1nc(-c2ccc(NC(=O)[C@H](O)c3cc(F)cc(F)c3)cc2C)cnc1N` [LY2, 3-amino-6-[4-[[(2R)-2-(3,5-difluorophenyl)-2-hydroxy-acetyl]amino]-2-methyl-phenyl]-N-methyl-pyrazine-2-carboxamide], the IC50 (usually the concentration that inhibits the measured activity by half) on GCN2 catalytic domain stood at 10800 nM; in assay [1], 2 nM; with ATF4-Luc activity, 56 nM. Besides, in the assay with secondary kinase targets, the secondary kinase targets result is “several secondary targets below 5 μM”.

Regarding `Cc1cc(NC(=O)[C@H](O)c2cccc(F)c2)ccc1-c1cn(C)c2ncnc(N)c12` [LY3, (2R)-N-[4-(4-amino-7-methyl-pyrrolo[2,3-d]pyrimidin-5-yl)-3-methyl-phenyl]-2-(3-fluorophenyl)-2-hydroxy-acetamide], the 50% inhibitory concentration (IC50) is 16400 nM on GCN2 catalytic domain, 2 nM in assay [1] and 16 nM in the assay with ATF4-Luc activity. For the same compound, the secondary kinase targets entry in the assay on secondary kinase targets is “several secondary targets below 5 μM”.

Take `Cc1cc(NC(=O)[C@H](O)c2cc(F)cc(F)c2)ccc1-c1cnc(N)c(C(=O)NC(C)C)c1` [LY4, 2-amino-5-[4-[[(2R)-2-(3,5-difluorophenyl)-2-hydroxy-acetyl]amino]-2-methyl-phenyl]-N-isopropyl-pyridine-3-carboxamide]: the IC50 at GCN2 catalytic domain stood at 18100 nM; in assay [1], 2 nM; in the assay with ATF4-Luc activity, 48 nM. Also, the secondary kinase targets result with secondary kinase targets is “no secondary kinase targets below 15 μM concentration”.
